The values below come from patent US6660501B2, “Production of proteins by cell culture” (Lonza Group, AG, priority 1986, dated 2003).

The subject of this assay is NT1/19 cells. Kind of assay: Effect of varying alkanoates on antibody production from hybridoma cells. Type of assay: cell-based. Particulars: for AVERAGE DATA FROM EXP. #1 & #2: average of relative productivity, control 100.00; for PRODUCTIVITY EXP. #1: control 3.30; for PRODUCTIVITY EXP #2: control 2.39. As for the experimental part: The IgM secreting mouse hybridoma cell line NB1/19 was grown in suspension culture in Dulbeccos Modified Eagles Minimum (DMEM) serum-free medium containing albumin, insulin, transferrin, gentamycin and other additives as required to cultivate cells in suspension culture. The NB1/19 cell line produces a mouse monoclonal antibody having specificity for an antigenic determinant of human B-type blood cells. The preparation of this call line is described in detail in the specification of British Patent GB 2097425B. It will be appreciated, however, that other hybridoma cell lines may be used in place of this particular cell line as appropriate in this and other examples.
The cells were grown to a viable cell density of 1.0-1.5×10^6 cells/ml. Viable cell density was determined by counting the number of cells which exclude trypan blue, a staining agent. A sample of the suspension culture was diluted in a serum-free medium to a density of about 1.3×10^5 cells/ml. Aliquots of 50 ml in volume were dispensed into shake flasks and sodium butyrate added at concentrations of 0.1 mM, 0.3 mM, 0.5 mM and 1.0 mM.
The shake flasks were gassed with 5% CO2-95% air, and sealed and incubated with shaking at 37° C. for up to 207 hours. (Table 1). Samples ([…]) were removed from the culture by pipette. 100 μl was used to determine viable cell count and the reminder centrifuged at 300×g for five minutes. Supernatants were stored at −20° C. prior to antibody determination by enzyme linked immunosorbent assay (ELISA).
NT1/19 cells were cultured as in Example 1. Varying straight chain sodium alkanoate salts (propionate, butyrate, bentanoate or hexanoate) were added to the inoculum at the concentrations indicated in Table 5.

Consider `CCCCC(=O)[O-].[Na+]` [PENANOATE, bentanoate], for which, where the note is “0.50 mM alkanoate”, the “RELATIVE PRODUCTIVITY EXP. #1” value was 163.6 % of control, the “AVERAGE DATA FROM EXP. #1 & #2” value was 163.64 and the “PRODUCTIVITY EXP. #1” value is reported as 5.40 ug antibody per 10^5 cells. Where the note is “1.00 mM alkanoate”, the “RELATIVE PRODUCTIVITY EXP. #1” value is 206.1 % of control, the “RELATIVE PRODUCTIVITY EXP. #2” value is listed as 230.1 % of control, the “AVERAGE DATA FROM EXP. #1 & #2” value came to 218.09 and the “PRODUCTIVITY EXP #2” value is 5.50 ug antibody per 10^5 cells. In addition, the “PRODUCTIVITY EXP. #1” value (1.00 mM alkanoate) was 6.80 ug antibody per 10^5 cells.
Turning to `CCC(=O)O` [PROPIONATE, propionate], for the setting “0.50 mM alkanoate”, the “AVERAGE DATA FROM EXP. #1 & #2” value turned out to be 172.73 and the “PRODUCTIVITY EXP. #1” value is given as 5.70 ug antibody per 10^5 cells. In addition, for the setting “1.00 mM alkanoate”, the “AVERAGE DATA FROM EXP. #1 & #2” value is 210.07, the “PRODUCTIVITY EXP #2” value was 4.95 ug antibody per 10^5 cells and the “PRODUCTIVITY EXP. #1” value is reported as 7.03 ug antibody per 10^5 cells.
